# In publication PMC11615764, “Discovery of Ketal‐Ester Ionizable Lipid Nanoparticle with Reduced Hepatotoxicity, Enhanced Spleen Tropism for mRNA Vaccine Delivery” (Advanced Science, 2024):
# “Also recorded” adds a separate entry of the source. Like-named read-outs stand apart in the source and are kept apart here.
# Experiments:
# [1] = LNP apparent pKa, TNS dye‐binding assay; type: physicochemical; details: apparent pKa of the LNP
# Method: Following the formulation methods of SpikeVax and Onpattro, all KEL LNPs were formulated with standard helper lipids: DSPC, Chol, and DMG‐PEG2000 at a molar ratio of Ionizable lipid/DSPC/Chol/DMG‐PEG2000 50:10:38.5:1.5, and at an ionizable lipid to RNA charge ratio (N/P) of 6.^[ [25] ^] Particle size and polydispersity index (PDI) were determined by dynamic light scattering (DLS), apparent pKa was assessed using 6‐(p‐toluidino)‐2‐naphthalenesulfonic acid (TNS) dye‐binding assay, while encapsulation efficiency was evaluated by a RiboGreen accessibility assay.
# A series of buffers with pH values varying by 1 between 3.0 and 12.0 were prepared by titrating a solution containing 10 mM citrate, 10 mM phosphate, 10 mM borate, and 150 mM NaCl with 1.0 M HCl and 0.5 M NaOH. LNPs were diluted to 75 µM ionizable lipid, TNS to 6 µM in these buffers. Fluorescence intensity was determined using a Thermo Scientific 3020 spectrophotometer (325 nm excitation/435 nm emission). With the resulting fluorescence values, a sigmoidal plot of fluorescence versus buffer pH was created. The […] inflection point of this curve was the apparent pKa of the LNP formulation.
# Balb/c mice = test: In vivo firefly luciferase mRNA expression, whole‐body bioluminescence; set-up: species or system mouse; details: mLuci LNP, female Balb/c mice; for delivery potency (whole‐body luciferase), IV and IM: IV 1 mg/kg and IM 0.25 mg/kg; for whole‐body luciferase activity after IV administration: IV 1 mg/kg; for whole‐body luciferase activity after IM administration: IM 0.25 mg/kg, compared with DLin‐MC3‐DMA LNP
# Method: Subsequently, the formulated KEL LNPs were evaluated for their in vivo delivery efficiency (Figure 1C). Wild‐type female Balb/c mice were administered with a single dose of LNPs containing firefly luciferase mRNA (mLuci) via IV or intramuscular (IM) injection (Figure 2A,B), followed by whole‐body luciferase activity assay. A control group receiving DLin‐MC3‐DMA‐based LNP was included in each experiment to facilitate comparisons across experiments.
# Balb/c mice were injected intramuscularly (0.25 mg k^−1g) or intravenously (1 mg k^−1g) with LNPs. At 6 or 24 hrs post‐administration, mice were injected intraperitoneally with 150 mg k^−1g of D‐luciferin monosodium salt (ThermoFisher) and imaged using the in vivo imaging system (IVIS Lumina LT Series III) 10 min post intraperitoneally. 1 × PBS (IM: 50 µL; IV: 200 µL) was injected as a negative control.
# [2] = Encapsulation efficiency of LNPs, RiboGreen accessibility assay; type: physicochemical; details: LNP: ionizable lipid/DSPC/Chol/DMG‐PEG2000 50:10:38.5:1.5, N/P 6
# Method: (§1) Particle size and polydispersity index (PDI) were determined by dynamic light scattering (DLS), apparent pKa was assessed using 6‐(p‐toluidino)‐2‐naphthalenesulfonic acid (TNS) dye‐binding assay, while encapsulation efficiency was evaluated by a RiboGreen accessibility assay.
# (§2) The sizes of the LNP formulations were assessed by DLS (Malvern Zetasizer Pro). Quant‐it RiboGreen assay (ThermoFisher Scientific, Cat# R11490) was used to measure the encapsulation efficiency of the LNP formulations. Briefly, LNPs treated by 1% (v/v) Triton X‐100 (Adamas‐beta) to disrupt LNP structure and release mRNA and untreated LNPs were diluted to a concentration below 2 µg mRNA/mL, then reacted with an equal volume of RiboGreen assay solution at a 200‐fold dilution. Standard curves were generated within the range between 0.0 to 2.0 µg mRNA/mL using a series of free mRNA solutions with or without 1% v/v Triton X‐100. The concentrations of free mRNA and total mRNA in the formulation were determined using bulk fluorescent reading (excitation: 490 nm, emission: 535 nm) of the sample against the corresponding standard curves. The amount of RNA loaded into the LNPs (internal RNA) was calculated by subtracting the values obtained in 1 x TE (external RNA) from 1 x TE + 1% Triton X‐100 (total RNA). Subsequently, the encapsulation efficiency was calculated as the percentage obtained by dividing the amount of internal RNA by the total RNA amount.
# [3] = LNP particle size and PDI by dynamic light scattering; type: physicochemical; details: LNP: ionizable lipid/DSPC/Chol/DMG‐PEG2000 50:10:38.5:1.5, N/P 6; DLS
# Method: as §1, §2
# human liver microsomes = test: Microsomal stability of ionizable lipids, human; details: 0.5 mg protein/mL, NADPH and UDPGA
# 293T cells [4] = test: Cell Counting Kit‐8 cytotoxicity assay; details: lipid alone at 50 µM, CCK8, 48 h
# [5] = Biodegradability of LNPs after IV injection, ionizable lipid in plasma by LC‐MS/MS; details: mLuci LNP IV 0.5 mg/Kg, mice
# 293T cells [6] = details: 50 µM
# [7] = mouse, in vivo, iv, 0.5 mg/kg
SMILES,pKa [1],Encapsulation efficiency (%) [2],PDI [3],Size (nm) [3],"delivery potency (whole‐body luciferase), IV and IM (Balb/c mice)",whole‐body luciferase activity after IV administration (Balb/c mice),remaining after 120 minutes (human liver microsomes),cell viability (293T cells [4]),decline of ionizable lipid level in plasma during the first 6 hrs [5],ionizable lipid level in plasma after 12 hrs [5],ionizable lipid level in plasma after 24 hrs [5],whole‐body luciferase activity after IM administration (Balb/c mice),cell viability (293T cells [6]),decline of ionizable lipid level in plasma during the first 6 hrs [7],whole‐body luciferase activity after IV administration (Balb/c mice; 1 mg/kg)
CCCCCCCCC(CCCCCCCC)OC(=O)CCCCCCCC1(CCCCCCCC(=O)OC(CCCCCCCC)CCCCCCCC)OCC(CCN(C)C)O1 (stereo not drawn) [KEL10],6.09,96.5%,0.10,69.23 nm,potency diminished compared to KEL2,lower potency than those with pKa of 6.7‐7.0,,,,,,,,,
CCCCCCCCCCCOC(=O)CCCCCN(CCO)CCCCCCCC(=O)OC(CCCCCCCC)CCCCCCCC [SM‐102],,,,,,,about 80%,over 80%,reduced faster than (4S)‐KEL12,< 10 ng/mL,undetectable,,,,
"CCCCC/C=C\C/C=C\CCCCCCCCC(CCCCCCCC/C=C\C/C=C\CCCCC)OC(=O)CCCN(C)C [DLin‐MC3‐DMA, reference compound]",6.33,96.7%,0.15,72.70 nm,,,,,,,,,over 80%,reduced faster than (4S)‐KEL12,
CCCCCCCCCCCOC(=O)CCCCCC1(CCCCCCCC(=O)OC(CCCCCCCC)CCCCCCCC)OCC(CN(C)C)O1 (stereo not drawn) [KEL1],5.72,95.0%,0.12,76.72 nm,lower delivery efficiency for both IV and IM administration,,,,,,,,,,
CCCCCCCCCCCNC(=O)CCCCCC1(CCCCCCCC(=O)NC(CCCCCCCC)CCCCCCCC)OCC(CCN(C)C)O1 (stereo not drawn) [KEL9],7.03,98.2%,0.05,125.0 nm,significantly reduced delivery potency; also recorded: lower delivery efficiency for both IV and IM administration,,,,,,,,,,
CCCCCCCCCCCOC(=O)CCCCCC1(CCCCCCCC(=O)OC(CCCCCCCC)CCCCCCCC)OCC(CCN(C)CC)O1 (stereo not drawn) [KEL5],6.86,96.5%,0.07,78.44 nm,,,,,,,,,,,
CCCCCCCCCCCOC(=O)CCCCCC1(CCCCCCCC(=O)OC(CCCCCCCC)CCCCCCCC)OCC(CCN(C)CCC)O1 (stereo not drawn) [KEL7],5.91,97.2%,0.10,61.73 nm,lower delivery efficiency for both IV and IM administration,,,,,,,,,,
CCCCCCCCCCCOC(=O)CCCCCC1(CCCCCCCC(=O)OC(CCCCCCCC)CCCCCCCC)OCC(CCN(CC)C(C)C)O1 (stereo not drawn) [KEL8],6.17,97.6%,0.03,71.68 nm,,lower potency than those with pKa of 6.7‐7.0,,,,,,,,,
CCCCCCCCCCCOC(=O)CCCCCC1(CCCCCCCC(=O)OC(CCCCCCCC)CCCCCCCC)OCC(CCN(CC)CC)O1 (stereo not drawn) [KEL6],6.89,97.5%,0.06,80.34 nm,,,,,,,,,,,

# Now from value to compound, other results behind:
pKa [1],Encapsulation efficiency (%) [2],PDI [3],Size (nm) [3],SMILES,"delivery potency (whole‐body luciferase), IV and IM (Balb/c mice)",whole‐body luciferase activity after IV administration (Balb/c mice),remaining after 120 minutes (human liver microsomes),cell viability (293T cells [4]),decline of ionizable lipid level in plasma during the first 6 hrs [5],ionizable lipid level in plasma after 12 hrs [5],ionizable lipid level in plasma after 24 hrs [5],whole‐body luciferase activity after IM administration (Balb/c mice),cell viability (293T cells [6]),decline of ionizable lipid level in plasma during the first 6 hrs [7],whole‐body luciferase activity after IV administration (Balb/c mice; 1 mg/kg)
6.93,94.9%,0.04,89.54 nm,CCCCCCCCCCC(=O)OCCCCCCC1(CCCCCCCC(=O)OC(CCCCCCCC)CCCCCCCC)OCC(CCN(C)C)O1 (stereo not drawn) [KEL12],higher potency than LNPs with either double branched tails (KEL10) or double linear tails (KEL11),significantly higher luciferase activity than DLin‐MC3‐DMA LNP by IV,,,,,,significantly higher luciferase activity than DLin‐MC3‐DMA LNP,,,
6.88,92.3%,0.03,70.27 nm,CCCCCCCCCCCOC(=O)CCCCCC1(CCCCCCCC(=O)OC(CCCCCCCC)CCCCCCCC)OCC(CCN(C)C)O1 (stereo not drawn) [KEL2],higher potency than KEL1 and KEL4; also recorded: higher potency than LNPs with either double branched tails (KEL10) or double linear tails (KEL11),,,,,,,significantly higher levels of luciferase activity than the DLin‐MC3‐DMA LNP,,,
7.40,91.0%,0.16,118.1 nm,CCCCCCCCCCCOC(=O)CCCCCC1(CCCCCCCC(=O)OC(CCCCCCCC)CCCCCCCC)OCC(CCCCN(C)C)O1 (stereo not drawn) [KEL4],considerable potency,,,,,,,,,,
6.44,91.0%,0.09,99.68 nm,CCCCCCCCCCC(=O)OCCCCCCC1(CCCCCCCCOC(=O)C(CCCCCCCC)CCCCCCCC)OCC(CCN(C)C)O1 (stereo not drawn) [KEL13],higher potency than LNPs with either double branched tails (KEL10) or double linear tails (KEL11),,,,,,,significantly higher luciferase activity than DLin‐MC3‐DMA LNP,,,lower potency than those with pKa of 6.7‐7.0
6.86,89.3%,0.16,98.15 nm,CCCCCCCCCCCOC(=O)CCCCCC1(CCCCCCCC(=O)OC(CCCCCCCC)CCCCCCCC)OCC(CCCN(C)C)O1 (stereo not drawn) [KEL3],higher potency than KEL1 and KEL4,,,,,,,significantly higher levels of luciferase activity than the DLin‐MC3‐DMA LNP,,,
6.88,93.3%,0.34,110.3 nm,CCCCCCCCCCCOC(=O)CCCCCC1(CCCCCC(=O)OCCCCCCCCCCC)OCC(CCN(C)C)O1 (stereo not drawn) [KEL11],further decrease in potency compared to KEL10,,,,,,,,,,
